Biological target: T1, 10-formyltetrahydrofolate dehydrogenase (FDH) (Rattus norvegicus, UniProt P28037)
T1 sequence (P28037 1-902): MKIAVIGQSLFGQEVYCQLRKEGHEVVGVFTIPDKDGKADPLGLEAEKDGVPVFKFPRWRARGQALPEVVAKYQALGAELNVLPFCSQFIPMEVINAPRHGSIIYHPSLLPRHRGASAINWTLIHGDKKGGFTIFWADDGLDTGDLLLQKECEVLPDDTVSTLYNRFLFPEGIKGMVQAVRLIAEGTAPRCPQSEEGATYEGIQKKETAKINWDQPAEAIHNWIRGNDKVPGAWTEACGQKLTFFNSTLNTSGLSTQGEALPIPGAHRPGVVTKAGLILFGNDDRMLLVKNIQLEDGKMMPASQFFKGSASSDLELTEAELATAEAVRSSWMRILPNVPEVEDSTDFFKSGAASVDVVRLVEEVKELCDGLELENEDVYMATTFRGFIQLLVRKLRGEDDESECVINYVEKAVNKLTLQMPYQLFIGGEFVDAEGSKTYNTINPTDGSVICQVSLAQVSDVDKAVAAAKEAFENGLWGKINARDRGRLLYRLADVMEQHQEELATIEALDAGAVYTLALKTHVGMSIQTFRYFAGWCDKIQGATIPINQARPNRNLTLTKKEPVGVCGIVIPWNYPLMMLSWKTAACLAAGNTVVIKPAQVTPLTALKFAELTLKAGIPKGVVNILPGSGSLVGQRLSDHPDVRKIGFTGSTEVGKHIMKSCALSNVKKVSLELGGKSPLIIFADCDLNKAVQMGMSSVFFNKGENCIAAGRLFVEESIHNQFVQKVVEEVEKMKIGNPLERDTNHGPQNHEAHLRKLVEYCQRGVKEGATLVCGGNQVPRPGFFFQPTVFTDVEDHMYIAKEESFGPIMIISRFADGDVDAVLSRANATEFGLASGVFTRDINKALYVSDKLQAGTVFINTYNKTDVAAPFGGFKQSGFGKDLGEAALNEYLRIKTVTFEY
Test: THF formation at […] nm with NADP+, hydrolytic rate subtracted
Format: biochemical

## CC=O [acetaldehyde]
  IC50: 4 mM
